Tests used:
CHD4 [1] = format: cell-based
Suv39h1 = format: cell-based
MTA3 [2] = format: cell-based
MTA3 [3] = format: cell-based; remark: listed apart in the source
Hif1α [4] = format: cell-based
CHD4 [5] = format: cell-based; remark: listed apart in the source
Hif1α [6] = format: cell-based, mouse

**Q.** `[Cl-].[Cl-].[Co+2]` [CoCl2] was tested. Which CHD4 protein levels (CHD4 [1]) did it give?
**A.** increased

**Q.** What about the “expression of the Suv39h1 methyltransferase” value (Suv39h1) of the same compound?
**A.** to a lesser extent, CoCl2, increased expression of the Suv39h1 methyltransferase

**Q.** And the MTA3 protein levels (MTA3 [2])?
**A.** increased

**Q.** And the “MTA3 mRNA levels” value (MTA3 [3])?
**A.** increased

**Q.** What about the Hif1α protein levels (Hif1α [4]) of the same compound?
**A.** increased

**Q.** And the “accumulation of Hif1α” value (Hif1α [4])?
**A.** significant accumulation of Hif1α

**Q.** What about the “accumulation of Hif1α protein in combination with IR, versus agent alone” value (Hif1α [4]) of the same compound?
**A.** much larger accumulation of Hif1α protein

**Q.** And the “CHD4 mRNA levels” value (CHD4 [5])?
**A.** increased

**Q.** And the “ability to increase Hif1α levels in SuvDKO MEFs” value (Hif1α [6])?
**A.** not altered

Source: patent US20130267594A1, “PROLYL HYDROXYLASE INHIBITORS AS RADIATION MITIGATORS AND RADIATION PROTECTORS” (priority 2010, published 2013)
